Experimental data reported in patent publication US11241434B2, “Compositions and methods for improving cognition in a subject” (Yale University, priority 2013, dated 2022).

What was measured:
[1] = tested on: APPswe/PS1ΔE9 transgenic mice; assay: Morris water maze in AD transgenic mice
Procedure: Spatial learning is plotted as latency to find a hidden platform in a Morris water maze at age 11-12 months. […] Mean±SEM for the indicated numbers of mice per genotype/treatment group.
Memory performance during a 60 sec probe trial, 24 hr after learning, where time spent in the target quadrant was measured. Random chance is 15 sec. Mean±SEM for n=9-14 in each group.
The dosing was on a twice a day schedule by oral gavage and control groups received vehicle. The identity of the active versus vehicle groups and the transgene status was unknown to the researchers handling the mice and collecting the behavioral data. […] The data from the two cohorts were pooled. Different tests were performed at 1-3 weeks (early) or 4-6 weeks (late) time points. Mice were tested in the Morris water maze at both ages, and also in Novel Object Recognition tests at the later time points. After memory testing was complete, the animals were sacrificed without ceasing their drug regimen for histological analysis.
After the learning trials, the mice were tested the subsequent day in a memory test, the 60 second probe trial with the hidden platform removed (FIG. 4). Random chance results in 15 sec occupancy in each quadrant.

[2] = Dog toxicology studies (6 month and nine-month); type: in vivo
Excerpt: The body weight of dogs treated with different doses of saracatinib was plotted as a function of time. There were a […] (4 female and 4 male in each group), but a single sex (male) is shown here because the weight range is different between sexes. The trend for female dogs is similar but not shown. Values are mean±sem.

[3] = Saracatinib drug levels in mouse brain, plasma and CSF (LC/MS/MS); type: in vivo; conditions: 5 mg/kg/d; for peak CSF level / trough CSF level: one pooled sample
Procedure: Data are mean±sem for separate mice for all points except CSF where samples pooled.
In an initial cohort after 6 doses, samples were collected 30-60 minutes after dosing to obtain a peak level (FIG. 6). Drug levels were measured with an LC/MS/MS method validated for clinical samples.

[4] = tested on: mice with closed head injury (CHI) and chronic variable stress (CVS); assay: Behavioral tests after closed head injury plus chronic variable stress; type: in vivo, mouse
Procedure: FIGS. 15A-15H illustrate the finding that Fyn inhibition rescues memory deficits after repeated mild head injury combined with chronic stress. FIG. 15A: Timeline for mice undergoing 14 days of chronic variable stress (CVS) and closed head injury (CHI) or Sham CVS & CHI paradigm. On Day 15, Rotarod testing was done to assess motor impairment in a subset of mice. The mice were treated with either AZD0530 (5 mg/kg/d) or Vehicle treatment for 10 weeks starting 24 hours after the final day of injury. This was followed by one week of behavioral testing, including novel object recognition test and Morris water maze prior to perfusion and immunohistochemistry. FIG. 15B: Rotarod prior to the treatment using the Sham and Injured groups. One-way ANOVA, p>0.05. Data are mean±SEM. n=8-9/group, each dot is one mouse. FIG. 15C: Novel object recognition test using the Sham mice and Injured mice with and without AZD0530 treatment. Two-way ANOVA, F(2,64)=5.258 p=0.007 for interaction of group with object, Sidak's multiple comparison test: Novel vs Familiar for Sham Vehicle (SV): p<0.0001, for Injured Vehicle (IV): p=0.99, for Injured AZD (IA): p=0.0002. Data are mean±SEM. n=9-13/group, each dot represents one mouse. FIG. 15D: Latency to reach a hidden platform in Morris water maze across 6 blocks of 4 swims for Sham mice and Injured mice with and without AZD0530 treatment. Data are mean±SEM. n=14-17/group. Two-way ANOVA for time and group with main effect of group, p<0.0001, F (2, 41)=47.24. Tukey's multiple comparison test: SV vs IV: p<0.0001, IV vs IA: p=0.98, SV vs IA: p<0.0001. FIG. 15E: Morris water maze probe trial for Sham or Injured mice treated with Vehicle or AZD0530, showing time in the Target quadrant. One way ANOVA: F(2,39)=9.410, p=0.0005, Tukey's multiple comparison test: SV vs IV: p=0.0003, IV vs IA: p=0.12, SV vs IA: p=0.05. Data are mean±SEM. n=13-15/group, each dot is one mouse. Dashed line indicates random chance performance. FIG. 15F: A second group of mice underwent a similar 14 days of chronic variable stress (CVS) plus closed head injury (CHI) or Sham CVS & CHI paradigm, and then starting on Day 121 were treated with either AZD0530 (5 mg/kg/d) or Vehicle for 10 weeks. The mice subsequently underwent Morris water maze testing. […] Data are mean±SEM. n=8-26/group. […] Data are mean±SEM. n=8-26/group, each dot is one mouse.
The injury model was based on the combination of Closed Head Injury (CHI) and Chronic Variable Stress (CVS). The Sham mice received Sham-CHI and Sham-CVS treatments.
Closed Head Injury (CHI) is a well-established mice injury model (Sangobowale et al, 2018, Neurotrauma 35:907-917). Mice were weighed prior to receiving Sham-CHI or CHI. […] Mice were placed on a heating pad to maintain body temperature while receiving the impact, as well as during the post-injury recovery period. The mice underwent a total of 14 consecutive days of CHI injury, once per day. The site of injury alternated between right and left hemispheres on consecutive days. Each CHI injury was performed 1-3 hours after that day's CVS exposure. Injury severity was assessed using time interval between injury and recovery of the righting reflex (Grin'kina et al., 2013, PLoS One 8, e53775). The mice were placed on a heat pad both while receiving the impact, as well as the period following the impact to preserve their core body temperature. Mice were returned to vivarium after restoration of their righting reflex and this was typically less than 5 minutes. […]

Src, Fyn, Yes and Lyn = conditions: blocking Src, read-out: potency; cited from earlier work
[5] = Injured mice, 5 mg/kg/day from Day 15, 10 weeks

## CN1CCN(CCOc2cc(OC3CCOCC3)c3c(Nc4c(Cl)ccc5c4OCO5)ncnc3c2)CC1 [saracatinib, N-(5-chloro-benzo[d][1,3]dioxol-4-yl)-7-(2-(4-methylpiperazin-1-yl)ethoxy)-5-(tetrahydro-2H-pyran-4-yloxy)quinazolin-4-amine]
[1]; APPswe/PS1ΔE9 mice, 5 mg/kg/d b.i.d. oral gavage, 4-5 weeks
  latency to hidden platform (learning trials): eliminated the transgenic deficit
[1]; APPswe/PS1ΔE9 mice, 5 mg/kg/d, 5 weeks
  probe trial, preference for target quadrant: same strong preference for the target quadrant as did WT mice
[1]; shorter treatment duration or lesser doses
  learning and memory tests: did not have significant effects
[1]; wild type mice with or without 5 weeks saracatinib, 60 second trial, chance 15 sec
  probe trial, time in target quadrant: ~30 s
[1]; wild type mice, 5 mg/kg/d
  latency to hidden platform (learning trials): not altered
[2]; nine-month study
  body weight: continued weight gain
[2]; nine-month study, 0.5, 2 and 5 mg/kg/d, at 8.75 months
  adverse symptoms: no obvious adverse symptoms
[3]
  peak brain level: 50 nM
  peak CSF level: 13 nM
  trough CSF level: 8.9 nM
[3]; 5 mg/kg/day
  trough brain level: 19 to 46 nM
[3]; as free base
  peak brain level: 27 ng/g
  peak CSF level: 7 ng/mL
  trough CSF level: 4.6 ng/mL
[4]; [5]
  Morris water maze learning trials: severely impaired learning relative to Sham Vehicle
  Morris water maze probe trial memory for platform location: not statistically distinguishable from Sham Vehicle
[4]; Injured mice, 5 mg/kg/day oral gavage from Day 15 (24 hours after final injury), 10 weeks
  novel object recognition: recognized familiar objects as successfully as Sham Vehicle mice
[4]; Injured mice, treatment from Day 121 (107 days after final injury), 10 weeks
  Morris water maze probe trial memory: no evidence of improved memory
[4]; treatment from Day 121, 10 weeks
  Morris water maze latency in learning trials, Injured AZD vs Injured Vehicle: not significantly different from one another
Src, Fyn, Yes and Lyn
  IC50: 2 to 10 nM
